pEC50: −log10 of the molar value. Like-named read-outs stand apart in the source and are kept apart here.

Broadly, the pEC50 is the EC50 on a negative log10 scale, so that one unit is a factor of ten.

What all share (format): cell-based
A short description of data set [1]: Cellular toxicity in MT-4 cells (XTT staining). As to conditions: human, 6 days incubation, read-out: TC50 (50% reduction in cell viability). As to the method:
(§1) The compounds were evaluated for inhibition of HIV-1IIIB infection and cellular toxicity in MT-4 cells.
(§2) The MT-4 cells and […] used in the HIV-1 inhibition assays were obtained from the AIDS Research and Reference Program (Rockville, MD) and propagated as recommended by the supplier.
(§3) Fifty microliters (50 μL) of MT-4 cells at a density of 1.0×10^4 cells/well in 10% complete RPMI-1640 (10% FBS supplemented with 1% L-glutamine and 1% Penicillin/Streptomycin) media were plated in a 96-well flat bottom plate. One-hundred microliters (100 μL) of each compound at 12 concentrations were added in triplicate followed by 50 μL of HIV-1IIIB at a pre-determined titer. The cultures were incubated for 6 days at 37° C./5% CO2. Following the incubation, the cells were stained with XTT for evaluation of compound efficacy and cellular toxicity, as described below.
(§4) Efficacy and toxicity values for the test materials were derived by measuring the reduction of the tetrazolium dye XTT (2,3-bis(2-methoxy-4-nitro-5-sulfophenyl)-5-[(phenylamino)carbonyl]-2H-tetrazolium hydroxide). XTT in metabolically active cells is metabolized by the mitochondrial enzyme NADPH oxidase to a soluble formazan product. XTT solution was prepared daily as a stock of 1 mg/mL in RPMI-1640 without additives. Phenazine methosulfate (PMS) solution was prepared at 0.15 mg/mL in DPBS and stored in the dark at −20° C. XTT/PMS stock was prepared immediately before use by adding 40 μL of PMS per mL of XTT solution. Fifty μL (50 μL) of XTT/PMS was added to each well of the plate and the plate incubated for 4 hours at 37° C. The 4-hour incubation has been empirically determined to be within the linear response range for XTT dye reduction with the indicated numbers of cells for each assay. The plates were sealed and inverted several times to mix the soluble formazan product and the plate was read at 450 nm (650 nm reference wavelength) with a Molecular Devices SpectraMax Plus 384 96 well plate format spectrophotometer.
(§5) Microsoft Excel 2010 in combination with XLfit4 was used to analyze and graph the data. EC50 (50% inhibition of virus replication), TC50 (50% reduction in cell viability) and a therapeutic index (TC50/EC50) are provided. Raw data for both antiviral activity and toxicity with a graphic representation of the data are provided in a printout summarizing the compound activity.

The test system of data set [2] is HIV-1IIIB. Briefly: Inhibition of HIV-1IIIB infection in MT-4 cells (XTT staining). As to conditions: HIV-1IIIB in MT-4 cells; for pEC50: 6 days incubation, XTT, read-out: EC50 (50% inhibition of virus replication). As to the method: as §1, §2, §3, §4, §5
On the technique in general: Formazan colour is commonly taken as a measure of viable cells.

Data set [3] deals with MT-4 cells. Briefly: Cellular toxicity in MT-4 cells (XTT staining). The following applies: 6 days incubation, read-out: TC50 (50% reduction in cell viability). The procedure: as §1, §2, §3, §4, §5
Setting [4] is: Human immunodeficiency virus 1, MT4, 144 h.

For `Cn1nc(NS(C)(=O)=O)c2c(Cl)ccc(-n3c([C@H](Cc4cc(F)cc(F)c4)NC(=O)Cn4nc(C(F)(F)F)c5c4C(F)(F)[C@@H]4C[C@H]54)nc4sccc4c3=O)c21` (atropisomer, axis not shown) [Compound 32], the CC50 at 6 days in data set [1] is over 100 nM. For the same molecule, the pEC50 in data set [2] was under 7.00.
Consider `Cn1nc(NS(C)(=O)=O)c2c(Cl)ccc(-n3c([C@H](Cc4cc(F)cc(F)c4)NC(=O)Cn4nc(C(F)(F)F)c5c4C(F)(F)C4CC54)nc4nc(S(C)(=O)=O)sc4c3=O)c21` (stereo partly drawn) [Compound 30], for which the CC50 in data set [3] was over 100 nM. Besides, in data set [2], the pEC50 was under 7.00.
For `Cn1nc(NS(C)(=O)=O)c2c(Cl)ccc(-n3c([C@H](Cc4cc(F)cc(F)c4)NC(=O)Cn4nc(C(F)(F)F)c5c4C(F)(F)[C@@H]4C[C@H]54)nc4nc(NCCC(F)(F)F)sc4c3=O)c21` [Compound 49], the CC50 at 6 days in data set [1] was over 100 nM. In data set [2], the “Therapeutic Index (TC50/EC50)” value is reported as over 458.7. Moreover, the pEC50 in data set [2] (setting [4]) is 9.66.
Take `COCCNc1nc2nc([C@H](Cc3cc(F)cc(F)c3)NC(=O)Cn3nc(C(F)(F)F)c4c3C(F)(F)[C@@H]3C[C@H]43)n(-c3ccc(Cl)c4c(NS(C)(=O)=O)nn(C)c34)c(=O)c2s1` [Compound 46]: in data set [1], the CC50 at 6 days was over 100 nM. Besides, the “Therapeutic Index (TC50/EC50)” value in data set [2] was over 510.2. In addition, the pEC50 in data set [2] (setting [4]) is 9.71.
With `CN(C)c1nc2nc([C@H](Cc3cc(F)cc(F)c3)NC(=O)Cn3nc(C(F)(F)F)c4c3C(F)(F)[C@@H]3C[C@H]43)n(-c3ccc(Cl)c4c(NS(C)(=O)=O)nn(C)c34)c(=O)c2s1` (atropisomer, axis not shown) [Compound 48], the CC50 at 6 days in data set [1] was over 100 nM. Further, the “Therapeutic Index (TC50/EC50)” value in data set [2] is on record as over 432.9. Moreover, the pEC50 in data set [2] (setting [4]) is 9.64.
On to `Cc1nsc2nc([C@H](Cc3cc(F)cc(F)c3)NC(=O)Cn3nc(C(F)(F)F)c4c3C(F)(F)[C@@H]3C[C@H]43)n(-c3ccc(Cl)c4c(NS(C)(=O)=O)nn(C)c34)c(=O)c12` (atropisomer, axis not shown) [Compound 44], for which the CC50 at 6 days in data set [1] is over 100 nM. For the same molecule, in data set [2], the “Therapeutic Index (TC50/EC50)” value is over 2.9 and the negative-log EC50 (pEC50) is 7.47.
Consider `Cn1nc(NS(C)(=O)=O)c2c(Cl)ccc(-n3c([C@H](Cc4cc(F)cc(F)c4)NC(=O)Cn4nc(C(F)(F)F)c5c4C(F)(F)[C@@H]4C[C@H]54)nc4nc(N5CCOC(C)(C)C5)sc4c3=O)c21` (atropisomer, axis not shown) [Compound 40], for which the CC50 at 6 days in data set [1] was over 100 nM. Moreover, the “Therapeutic Index (TC50/EC50)” value in data set [2] is over 492.6. The negative-log EC50 (pEC50) in data set [2] (setting [4]) was 9.69.
Regarding `Cn1nc(NS(C)(=O)=O)c2c(Cl)ccc(-n3c([C@H](Cc4cc(F)cc(F)c4)NC(=O)Cn4nc(C(F)(F)F)c5c4C(F)(F)[C@@H]4C[C@H]54)nc4nc(N5CCOCC5)sc4c3=O)c21` [Compound 51], the CC50 at 6 days in data set [1] is over 100 nM. In addition, the “Therapeutic Index (TC50/EC50)” value in data set [2] is over 518.1. Further, the pEC50 in data set [2] (setting [4]) was 9.71.
Turning to `Cn1nc(NS(C)(=O)=O)c2c(Cl)ccc(-n3c([C@H](Cc4cc(F)cc(F)c4)NC(=O)Cn4nc(C(F)(F)F)c5c4C(F)(F)[C@@H]4C[C@H]54)nc4c(c3=O)CCCN4)c21` (atropisomer, axis not shown) [Compound 34], in data set [1], the CC50 at 6 days is over 100 nM. The “Therapeutic Index (TC50/EC50)” value in data set [2] is over 42.6. Further, the negative logarithm of the EC50 (pEC50) in data set [2] (setting [4]) was 8.63.
Take `Cn1nc(NS(C)(=O)=O)c2c(Cl)ccc(-n3c([C@H](Cc4cc(F)cc(F)c4)NC(=O)Cn4nc(C(F)(F)F)c5c4C(F)(F)[C@@H]4C[C@H]54)nc4nc(N5CC6(COC6)C5)sc4c3=O)c21` (atropisomer, axis not shown) [Compound 41]: the CC50 at 6 days in data set [1] was over 100 nM. In data set [2], the “Therapeutic Index (TC50/EC50)” value is over 193.4. For the same molecule, the pEC50 in data set [2] (setting [4]) was 9.29.
For `Cn1nc(NS(C)(=O)=O)c2c(Cl)ccc(-n3c([C@H](Cc4cc(F)cc(F)c4)NC(=O)Cn4nc(C(F)(F)F)c5c4C(F)(F)[C@@H]4C[C@H]54)nc4sc(CC(F)(F)F)cc4c3=O)c21` [Compound 43], the CC50 at 6 days in data set [1] was over 100 nM. Further, the “Therapeutic Index (TC50/EC50)” value in data set [2] was over 31.7. Besides, the negative-log EC50 (pEC50) in data set [2] (setting [4]) is 8.50.
On to `Cn1nc(NS(C)(=O)=O)c2c(Cl)ccc(-n3c([C@H](Cc4cc(F)cc(F)c4)NC(=O)Cn4nc(C(F)(F)F)c5c4C(F)(F)[C@@H]4C[C@H]54)nc4ncsc4c3=O)c21` (atropisomer, axis not shown) [Compound 35], for which, in data set [1], the CC50 at 6 days was over 100 nM. Also, in data set [2], the negative logarithm of the EC50 (pEC50) is under 7.00.
In the case of `Cn1nc(NS(C)(=O)=O)c2c(Cl)ccc(-n3c([C@H](Cc4cc(F)cc(F)c4)NC(=O)Cn4nc(C(F)(F)F)c5c4C(F)(F)[C@@H]4C[C@H]54)nc4sc(-c5ccc(F)cc5)cc4c3=O)c21` (atropisomer, axis not shown) [Compound 42], the CC50 at 6 days in data set [1] is over 100 nM. For the same molecule, the “Therapeutic Index (TC50/EC50)” value in data set [2] is listed as over 26.4. For the same molecule, the pEC50 in data set [2] (setting [4]) was 8.42.
On to `Cn1nc(NS(C)(=O)=O)c2c(Cl)ccc(-n3c([C@H](Cc4cc(F)cc(F)c4)NC(=O)Cn4nc(C(F)(F)F)c5c4C(F)(F)[C@@H]4C[C@H]54)nc4nc(NCCO)sc4c3=O)c21` [Compound 47], for which, in data set [1], the CC50 at 6 days was over 100 nM. Besides, the “Therapeutic Index (TC50/EC50)” value in data set [2] is reported as over 83.3. Moreover, in data set [2] (setting [4]), the pEC50 was 8.92.
For `CS(=O)(=O)Nc1nn(CC(F)(F)F)c2c(-n3c([C@H](Cc4cc(F)cc(F)c4)NC(=O)Cn4nc(C(F)(F)F)c5c4C(F)(F)[C@@H]4C[C@H]54)nc4sccc4c3=O)ccc(Cl)c12` [Compound 1], in that order: over 100 nM, over 312.5 and 9.49.
For `CC1(C)CN(c2nc3nc([C@H](Cc4cc(F)cc(F)c4)NC(=O)Cn4nc(C(F)(F)F)c5c4C(F)(F)[C@@H]4C[C@H]54)n(-c4ccc(Cl)c5c(NS(C)(=O)=O)nn(CC(F)(F)F)c45)c(=O)c3s2)CCO1` (racemic) [Compound 52], in that order: over 100 nM, over 653.6 and 9.82.
For the molecule `CS(=O)(=O)Nc1nn(CC(F)(F)F)c2c(-n3c([C@H](Cc4cc(F)cc(F)c4)NC(=O)Cn4nc(C(F)(F)F)c5c4C(F)(F)[C@@H]4C[C@H]54)nc4ncsc4c3=O)ccc(Cl)c12` [Compound 3], in data set [1], the CC50 at 6 days is over 100 nM. Besides, the “Therapeutic Index (TC50/EC50)” value in data set [2] is over 625.0. The pEC50 in data set [2] (setting [4]) is 9.80.
For the molecule `Cn1nc(NS(C)(=O)=O)c2c(Cl)ccc(-n3c([C@H](Cc4cc(F)cc(F)c4)NC(=O)Cn4nc(C(F)(F)F)c5c4C(F)(F)[C@@H]4C[C@H]54)nc4nc(OCCC(F)(F)F)sc4c3=O)c21` (atropisomer, axis not shown) [Compound 53], the CC50 at 6 days in data set [1] is over 100 nM. Besides, the “Therapeutic Index (TC50/EC50)” value in data set [2] is recorded as over 980.4. Besides, the pEC50 in data set [2] (setting [4]) was 9.99.
As to `Cn1nc(NS(C)(=O)=O)c2c(Cl)ccc(-n3c([C@H](Cc4cc(F)cc(F)c4)NC(=O)Cn4nc(C(F)(F)F)c5c4C(F)(F)[C@@H]4C[C@H]54)nc4cc(N5CCCC5)sc4c3=O)c21` [Compound 39], in data set [1], the CC50 at 6 days was over 100 nM. In addition, in data set [2], the “Therapeutic Index (TC50/EC50)” value is over 5.4. Besides, the pEC50 in data set [2] (setting [4]) is 7.73.
Turning to `Cn1nc(NS(C)(=O)=O)c2c(Cl)ccc(-n3c([C@H](Cc4cc(F)cc(F)c4)NC(=O)Cn4nc(C(F)(F)F)c5c4C(F)(F)C4CC54)nc4nc(S(C)(=O)=O)sc4c3=O)c21` (stereo partly drawn) [Compound 29], the CC50 at 6 days in data set [1] was over 100 nM. Moreover, in data set [2], the “Therapeutic Index (TC50/EC50)” value is over 2.9 and the pEC50 is 7.46.
As to `Cn1nc(NS(C)(=O)=O)c2c(Cl)ccc(-n3c([C@H](Cc4cc(F)cc(F)c4)NC(=O)Cn4nc(C(F)(F)F)c5c4C(F)(F)[C@@H]4C[C@H]54)nc4onc(-c5ccccc5)c4c3=O)c21` (atropisomer, axis not shown) [Compound 37], in data set [1], the CC50 at 6 days was over 100 nM. In data set [2], the “Therapeutic Index (TC50/EC50)” value is given as over 9.0 and the pEC50 was 7.95.
For `CN(CCC(F)(F)F)c1nc2nc([C@H](Cc3cc(F)cc(F)c3)NC(=O)Cn3nc(C(F)(F)F)c4c3C(F)(F)[C@@H]3C[C@H]43)n(-c3ccc(Cl)c4c(NS(C)(=O)=O)nn(C)c34)c(=O)c2s1` [Compound 50], the CC50 at 6 days in data set [1] is over 100 nM. Also, in data set [2], the “Therapeutic Index (TC50/EC50)” value is over 1136.4. Moreover, the negative logarithm of the EC50 (pEC50) in data set [2] (setting [4]) was 10.06.

For the origin of these results see US20240327428A1, “Inhibitors of human immunodeficiency virus replication, method of making and method of using thereof” (ASCLETIS BIOSCIENCE CO., LTD., priority 2023, published 2024).
